Test results reported in patent US20190136321A1, “USE OF TRANSLATIONAL PROFILING TO IDENTIFY TARGET MOLECULES FOR THERAPEUTIC TREATMENT” (The Regents of The University of California, priority 2013, published 2019).
Read-outs that look alike come from different tables or passages of the source.

Experiments:
V600E-BRAF tumor cells = conditions: cited from earlier work
PC3 cells = assay: Ribosome profiling and RNA-seq of PC3 cells (translational efficiency, mRNA abundance); assay type: cell-based, human;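 note: mRNA is RNA-seq average read density per codon over the coding sequence, translational efficiency is ribosome footprint over RNA-seq density, scaled so the median gene equals 1.0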
Protocol: Given the critical role for mTOR in prostate cancer, PC3 human prostate cancer cells, in which mTOR is constitutively hyperactivated, were used to delineate translationally controlled gene expression networks upon complete or partial mTOR inhibition. Ribosome profiling was optimized to assess quantitatively ribosome occupancy genome-wide in cancer cells.
Cells were subsequently treated with cycloheximide (100 μg ml^−1) and detergent lysis was performed in the dish. The lysate was treated with DNase and clarified, and a sample was taken for RNA-seq analysis. Lysates were subjected to ribosome footprinting by nuclease treatment. Ribosome-protected fragments were purified, and deep sequencing libraries were generated from these fragments, as well as from poly(A) mRNA purified from non-nuclease-treated lysates.
Ribosome footprint and RNA-seq sequencing reads were aligned against a library of transcripts from the UCSC Known Genes database GRCh37/hg19. The first 25 nucleotides of each read were aligned using Bowtie and this initial alignment was then extended to encompass the full fragment-derived portion of the sequencing read while excluding the linker sequence. Read density profiles were then constructed for the canonical transcript of each gene, using only reads with 0 or 1 total mismatches between the read sequence and the reference sequence, comprised of the transcript fragment followed by the linker sequence. Footprint reads were assigned to an A site nucleotide at position +15 to +17 of the alignment, based on the total fragment length; mRNA reads were assigned to the first nucleotide of the alignment. The average read density per codon was then computed for the coding sequence of each transcript, excluding the first 15 and last 5 codons, which can display atypical ribosome accumulation.
Average read density was used as a measure of mRNA abundance (RNA-seq reads) and of protein synthesis (ribosome profiling reads). For most analyses, genes were filtered to require at least 256 reads in the relevant RNA-seq samples. Translational efficiency was computed as the ratio of ribosome footprint read density to RNA-seq read density, scaled to normalize the translational efficiency of the median gene to 1.0 after excluding regulated genes (log2 fold-change ±1.5 after normalizing for the all-gene median). Changes in protein synthesis, mRNA abundance and translational efficiency were similarly computed as the ratio of read densities between different samples, normalized to give the median gene a ratio of 1.0. This normalization corrects for differences in the absolute number of sequencing reads obtained for different libraries.

O=C(NOC[C@H](O)CO)c1ccc(F)c(F)c1Nc1ccc(I)cc1F [PD0325901]
PNAS rna (V600E-BRAF tumor cells; gene ALF/GTF2A1L): 2.7 log2 MEKi/DMSO | PNAS rna (V600E-BRAF tumor cells; gene ARID5A): −1.7 log2 MEKi/DMSO | PNAS rna (V600E-BRAF tumor cells; gene B4GALT6): −1.7 log2 MEKi/DMSO | PNAS rna (V600E-BRAF tumor cells; gene BXDC2/BRIX1): −1.2 log2 MEKi/DMSO | PNAS rna (V600E-BRAF tumor cells; gene BYSL): −1.2 log2 MEKi/DMSO | PNAS rna (V600E-BRAF tumor cells; gene CCND1): −2.2 log2 MEKi/DMSO | PNAS rna (V600E-BRAF tumor cells; gene CD3EAP): −1.4 log2 MEKi/DMSO | PNAS rna (V600E-BRAF tumor cells; gene CHSY1): −1.3 log2 MEKi/DMSO | PNAS rna (V600E-BRAF tumor cells; gene DDX21): −1.1 log2 MEKi/DMSO | PNAS rna (V600E-BRAF tumor cells; gene DUSP4): −2.2 log2 MEKi/DMSO | PNAS rna (V600E-BRAF tumor cells; gene DUSP6): −2.6 log2 MEKi/DMSO | PNAS rna (V600E-BRAF tumor cells; gene EGR1): −2.1 log2 MEKi/DMSO | PNAS rna (V600E-BRAF tumor cells; gene ELOVL6): −1.5 log2 MEKi/DMSO | PNAS rna (V600E-BRAF tumor cells; gene ETV1): −2.6 log2 MEKi/DMSO | PNAS rna (V600E-BRAF tumor cells; gene ETV4): −2.2 log2 MEKi/DMSO | PNAS rna (V600E-BRAF tumor cells; gene ETV5): −1.7 log2 MEKi/DMSO | PNAS rna (V600E-BRAF tumor cells; gene FLJ10534/TSR1): −1.1 log2 MEKi/DMSO | PNAS rna (V600E-BRAF tumor cells; gene FOS): −3.4 log2 MEKi/DMSO | PNAS rna (V600E-BRAF tumor cells; gene FOSL1): −4.2 log2 MEKi/DMSO | PNAS rna (V600E-BRAF tumor cells; gene GEMIN4): −1.2 log2 MEKi/DMSO | PNAS rna (V600E-BRAF tumor cells; gene GNL3): −1.0 log2 MEKi/DMSO | PNAS rna (V600E-BRAF tumor cells; gene GPR3): −2.1 log2 MEKi/DMSO | PNAS rna (V600E-BRAF tumor cells; gene GTPBP4): −1.1 log2 MEKi/DMSO | PNAS rna (V600E-BRAF tumor cells; gene HMGA2): −1.6 log2 MEKi/DMSO | PNAS rna (V600E-BRAF tumor cells; gene HSPC111/NOP16): −1.3 log2 MEKi/DMSO | PNAS rna (V600E-BRAF tumor cells; gene HYDIN): 2.1 log2 MEKi/DMSO | PNAS rna (V600E-BRAF tumor cells; gene IER3): −3.3 log2 MEKi/DMSO | PNAS rna (V600E-BRAF tumor cells; gene IL8): −2.5 log2 MEKi/DMSO | PNAS rna (V600E-BRAF tumor cells; gene KIR3DL2): 1.7 log2 MEKi/DMSO | PNAS rna (V600E-BRAF tumor cells; gene LIF): −3.2 log2 MEKi/DMSO | PNAS rna (V600E-BRAF tumor cells; gene LNK/SH2B3): −2.0 log2 MEKi/DMSO | PNAS rna (V600E-BRAF tumor cells; gene MAFF): −2.7 log2 MEKi/DMSO | PNAS rna (V600E-BRAF tumor cells; gene MAP2K3): −1.5 log2 MEKi/DMSO | PNAS rna (V600E-BRAF tumor cells; gene MYC): −2.4 log2 MEKi/DMSO | PNAS rna (V600E-BRAF tumor cells; gene PHLDA2): −2.2 log2 MEKi/DMSO | PNAS rna (V600E-BRAF tumor cells; gene PLK3): −2.3 log2 MEKi/DMSO | PNAS rna (V600E-BRAF tumor cells; gene POLR1C): −1.0 log2 MEKi/DMSO | PNAS rna (V600E-BRAF tumor cells; gene POLR3G): −1.0 log2 MEKi/DMSO | PNAS rna (V600E-BRAF tumor cells; gene PPAN): −1.2 log2 MEKi/DMSO | PNAS rna (V600E-BRAF tumor cells; gene PPAT): −1.1 log2 MEKi/DMSO | PNAS rna (V600E-BRAF tumor cells; gene PYCRL): −2.6 log2 MEKi/DMSO | PNAS rna (V600E-BRAF tumor cells; gene RRS1): −1.8 log2 MEKi/DMSO | PNAS rna (V600E-BRAF tumor cells; gene SEMA6A): 2.1 log2 MEKi/DMSO | PNAS rna (V600E-BRAF tumor cells; gene SLC1A5): −1.2 log2 MEKi/DMSO | PNAS rna (V600E-BRAF tumor cells; gene SLC4A7): −1.6 log2 MEKi/DMSO | PNAS rna (V600E-BRAF tumor cells; gene SPRED2): −1.0 log2 MEKi/DMSO | PNAS rna (V600E-BRAF tumor cells; gene SPRY2): −4.0 log2 MEKi/DMSO | PNAS rna (V600E-BRAF tumor cells; gene SPRY4): −2.6 log2 MEKi/DMSO | PNAS rna (V600E-BRAF tumor cells; gene TNC): −2.5 log2 MEKi/DMSO | PNAS rna (V600E-BRAF tumor cells; gene TNFRSF12A): −1.5 log2 MEKi/DMSO | PNAS rna (V600E-BRAF tumor cells; gene WDR3): −1.1 log2 MEKi/DMSO | PNAS rna (V600E-BRAF tumor cells; gene YRDC): −1.2 log2 MEKi/DMSO

CO[C@H]1C[C@@H]2CC[C@@H](C)[C@@](O)(O2)C(=O)C(=O)N2CCCC[C@H]2C(=O)O[C@H]([C@H](C)C[C@@H]2CC[C@@H](O)[C@H](OC)C2)CC(=O)[C@H](C)/C=C(\C)[C@@H](O)[C@@H](OC)C(=O)[C@H](C)C[C@H](C)/C=C/C=C/C=C/1C [rapamycin]
TrlEff (PC3 cells; gene ACTG1): −0.07 | mRNA (PC3 cells; gene ACTG1): 0.02 | mRNA (PC3 cells; gene AGRN): 0.01 | mRNA (PC3 cells; gene AHCY): 0.20 | mRNA (PC3 cells; gene ALKBH7): 0.06 | TrlEff (PC3 cells; gene AP2A1): −0.04 | mRNA (PC3 cells; gene AP2A1): 0.09 | TrlEff (PC3 cells; gene ARD1A): 0.01 | mRNA (PC3 cells; gene ARD1A): −0.04 | TrlEff (PC3 cells; gene C21orf66): −0.09 | mRNA (PC3 cells; gene C21orf66): −0.30 | TrlEff (PC3 cells; gene CIRBP): 0.10 | mRNA (PC3 cells; gene CLPTM1): 0.07 | mRNA (PC3 cells; gene COL6A2): −0.08 | mRNA (PC3 cells; gene ECSIT): −0.04 | TrlEff (PC3 cells; gene EEF1A2): −0.03 | mRNA (PC3 cells; gene EEF1A2): 0.03 | TrlEff (PC3 cells; gene EVPL): 0.30 | mRNA (PC3 cells; gene EVPL): −0.08 | mRNA (PC3 cells; gene FAM128B): 0.06 | mRNA (PC3 cells; gene IPO7): 0.20 | TrlEff (PC3 cells; gene MTA1): −0.05 | mRNA (PC3 cells; gene MTA1): 0.00 | mRNA (PC3 cells; gene NCLN): −0.05 | TrlEff (PC3 cells; gene PABPC4): −0.80 | TrlEff (PC3 cells; gene PACS1): 0.04 | mRNA (PC3 cells; gene PACS1): 0.07 | TrlEff (PC3 cells; gene PGLS): 0.20 | mRNA (PC3 cells; gene PGLS): 0.03 | mRNA (PC3 cells; gene PGM1): 0.40 | mRNA (PC3 cells; gene RABGGTB): −0.20 | mRNA (PC3 cells; gene RPL6): 0.09 | TrlEff (PC3 cells; gene RPL8): −0.40 | TrlEff (PC3 cells; gene RPL9): −1.00 | mRNA (PC3 cells; gene RPL10): 0.09 | mRNA (PC3 cells; gene RPL11): 0.09 | mRNA (PC3 cells; gene RPL12): 0.07 | mRNA (PC3 cells; gene RPL14): 0.07 | mRNA (PC3 cells; gene RPL17): 0.05 | mRNA (PC3 cells; gene RPL18): 0.08 | mRNA (PC3 cells; gene RPL22): 0.08 | mRNA (PC3 cells; gene RPL23): 0.09 | mRNA (PC3 cells; gene RPL27): 0.05 | mRNA (PC3 cells; gene RPL27A): 0.06 | TrlEff (PC3 cells; gene RPL29): −0.50 | mRNA (PC3 cells; gene RPL29): 0.10 | mRNA (PC3 cells; gene RPL31): −0.02 | mRNA (PC3 cells; gene RPL36): 0.09 | mRNA (PC3 cells; gene RPL37A): 0.08 | mRNA (PC3 cells; gene RPL41): 0.04 | mRNA (PC3 cells; gene RPS2): 0.07 | mRNA (PC3 cells; gene RPS8): 0.09 | TrlEff (PC3 cells; gene RPS9): −0.60 | mRNA (PC3 cells; gene RPS9): 0.10 | mRNA (PC3 cells; gene RPS13): 0.07 | TrlEff (PC3 cells; gene RPS14): −0.60 | mRNA (PC3 cells; gene RPS14): 0.10 | TrlEff (PC3 cells; gene RPS15): 0.03 | mRNA (PC3 cells; gene RPS15): −0.01 | mRNA (PC3 cells; gene RPS15A): 0.07 | TrlEff (PC3 cells; gene RPS21): −0.60 | mRNA (PC3 cells; gene RPS21): −0.01 | mRNA (PC3 cells; gene RPS25): 0.04 | mRNA (PC3 cells; gene RPS27): 0.10 | TrlEff (PC3 cells; gene RPS28): −0.80 | mRNA (PC3 cells; gene RPS28): 0.01 | mRNA (PC3 cells; gene RPS29): −0.01 | TrlEff (PC3 cells; gene SLC25A5): −0.30 | mRNA (PC3 cells; gene TKT): 0.02 | TrlEff (PC3 cells; gene VIM): −0.40
